Reference: patent US20260232682A1, “GSPT1 DEGRADER COMPOUNDS” (Captor Therapeutics S.A., priority 2023, published 2026)

Columns and labels:
[1] = biological target: [GSPT1]-[compound of formula (I)]-[CRBN/DDB1] complex (Homo sapiens, UniProt P15170+Q96SW2); test: AlphaLISA ternary complex formation assay (GSPT1); type: binding; conditions: 0.5 h; 1 μM compound; normalized to reference compound CC-885; read-out: Normalized AlphaLISA ternary complex average signal at 1 μM molecule
Experimental: The effect of the molecular glue compounds of the invention on the formation of a ternary complex composed of [GSPT1]-[compound of formula (I)]-[CRBN/DDB1] was investigated with two methods: AlphaLISA dose response assay or HTRF ternary complex assay.
Two types of protein solution were prepared: • 200 nM biotinylated GSPT1 (Table 3), 40 μg/ml AlphaScreen Streptavidin-coated Donor Beads in HBS (10 mM HEPES, 150 mM NaCL, pH 7.4) buffer with 0.1% Tween-20 and 1 mM DTT, • 200 nM 6×His-CRBN/DDB1, 40 μg/ml AlphaLISA Anti-6×His Acceptor beads in HBS buffer with 0.1% Tween-20 and 1 mM DTT.
The prepared solutions were incubated at room temperature for 30 min and then the solution containing the donor beads was mixed with the solution containing the acceptor beads.
The tested compounds were dispensed onto a white 384-well AlphaPlate 384 SW. DMSO was backfilled to all wells, resulting in a final DMSO content of 2%. Wells containing only DMSO served as background. Next, 10 μl of solution with donor and acceptor beads was added to the wells.
The plate was sealed with transparent film and shaken using a VibroTurbulator for 60 sec at room temperature, level 3. The plate was then spun down shortly (10 sec, 1000 rcf, room temperature) and incubated at 25° C. for 30 min.
The read-out was performed with PerkinElmer Enspire Multimode Plate Reader (method for AlphaLISA 384-well low volume, Filterset: λexc=680 nm, λem=615 nm).
The results were analyzed as follows: • 1) an average of luminescence for background signal was calculated and used as a negative control; • 2) average of the maximum measured luminescence for reference compound (structure shown in Table 3 below) was calculated and used as an internal positive control; • 3) raw luminescence values were normalized against positive and negative controls; • 4) Normalized responses to positive control were determined.

[2] = biological target: T1, GSPT1-HiBiT protein in GSPT1-HiBiT HEK293 cells (Homo sapiens, UniProt P15170+Q96SW2); test: GSPT1 degradation assay using HiBiT system (Nano-Glo HiBiT lytic assay); type: cell-based; conditions: 6 hours treatment; for DC50: read-out: HiBiT lytic assay Geomean absolute DC50
T1 construct: endogenous in cells; host or cells: HEK293 (CRISPR/Cas9 knock-in of HiBiT at the GSPT1 locus)
Text: The effect of selected compounds of the invention on GSPT1 protein levels was investigated, using the GSPT1-HiBiT HEK293 cell line and the Nano-Glo HiBiT degradation assay protocol below.
GSPT1-HiBiT HEK293 cells were generated in-house using the HEK293 parental cells (ATCC, cat. no 70016364) and the CRISPR/Cas9 system. HEK293 cells were transformed with pSpCas9-BB-2A-Puro v2.0 plasmid carrying gRNA targeting the C-terminus of GSPT1 and ssODN template containing the HiBiT tag sequence with flanking homology sequences. Neon Transfection System (Thermo Fisher Scientific) was used for electroporation. HEK293 GSPT1-HiBiT cells were cultured with DMEM Glutamax (Gibco) supplemented with 10% heat inactivated FBS (Gibco). After transfection the culture medium was changed to DMEM Glutamax with 10% heat-inactivated FBS and 1% Penicillin-Streptomycin (Biowest) supplemented with Puromycin (2 μg/ml; Invivogen) for clonal selection. In order to isolate single cell clones for further validation and analysis, limiting dilution cloning in 96-well plates was performed. When the single clones reached confluency, HiBiT Lytic Assay (Promega) was performed in order to identify HiBiT positive clones. The clone selected for further studies was verified and validated using genotyping and HiBiT Blotting (Promega).
Cells were maintained in DMEM Glutamax medium, supplemented with 1% penicillin/streptomycin and 10% Fetal Bovine Serum (FBS) at 37° C., 5% CO2. Compounds were stored frozen as 20 mM DMSO stocks.
For the Nano-Glo HiBiT assay, cells were seeded onto 384-well white solid bottom plate at 2×10^3 cells/well in 40 μL using the Agilent BioTek MultiFlo FX Multimode Dispenser and incubated overnight. Following overnight incubation (37° C., 5% CO2) cells were treated with the test compounds and vehicle only (DMSO) control using the Echo 555 Liquid Handler. Twelve data-point compound titration curve with concentrations ranging from 10 μM to 0.03 nM was used. Final DMSO concentration was kept constant at 0.25% v/v across the assay plate. After 6 hours of incubation (37° C., 5% CO2), plates were removed from the incubator and let to equilibrate to RT. Luminescent signal detection was conducted using the Nano-Glo HiBiT Lytic Detection System (Promega, cat. nr N3050). Nano-Glo HiBiT Lytic Reagent was prepared freshly by diluting the LgBiT Protein (1:100 vol/vol) and the Nano-Glo HiBiT Lytic Substrate (1:50 vol/vol) in the relevant volume of the Nano-Glo HiBiT Lytic Buffer. 40 μL of the HiBiT Lytic Reagent was added per well, plates were shaken to facilitate lysis (350 rpm, 5 min, RT) and incubated in the dark for the following 10 min. Luminescence was read using the PHERAstar multimode plate reader (BMG LABTECH). The raw data (the relative luminescence unit values, RLU) were uploaded under the relevant protocol and analysed in CDDVault data management platform. Luminescence (RLU) values were normalized to the controls, and reported absolute DC50 values and Dmax values were calculated in CDDVault using non-linear regression and appropriate equations.

[3] = tested on: GSPT1-HiBiT HEK293 cells; test: Cell Viability-CTG assay accompanying the Nano-Glo HiBiT assay; type: cell-based; conditions: 6 hours treatment, viability of GSPT1-HiBiT HEK293 cells
Experimental: In parallel, the Cell Viability-CTG assay was performed to ensure that the potential decrease of the luminescent signal observed in the Nano-Glo HiBiT assay is a result of protein degradation and not a result of decreasing cell viability. For CTG assay accompanying the Nano-Glo HiBiT assay, cells were cultured, seeded and treated as described above. After 6 hours of incubation (37° C., 5% CO2), plates were removed from the incubator and let to equilibrate to RT. Luminescent signal detection was conducted using the CellTiter-Glo Lumiescent Cell Viability Assay (Promega, cat. nr G7573). 10 μL of the Cell Titer Glo reagent was added per well, plates were shaken to facilitate lysis (460 rpm, 4 min, RT) and incubated in the dark for the following 8 min. Luminescence was read using the CLARIOstar multimode plate reader (BMG LABTECH). The raw data (the relative luminescence unit values, RLU) were uploaded under the relevant protocol and analysed in CDDVault data management platform, in a manner similar to the description above. The Mean Minimum values were calculated in CDDVault using non-linear regression and appropriate equations.

Chain of [GSPT1]-[compound of formula (I)]-[CRBN/DDB1] complex (P15170 whole entry): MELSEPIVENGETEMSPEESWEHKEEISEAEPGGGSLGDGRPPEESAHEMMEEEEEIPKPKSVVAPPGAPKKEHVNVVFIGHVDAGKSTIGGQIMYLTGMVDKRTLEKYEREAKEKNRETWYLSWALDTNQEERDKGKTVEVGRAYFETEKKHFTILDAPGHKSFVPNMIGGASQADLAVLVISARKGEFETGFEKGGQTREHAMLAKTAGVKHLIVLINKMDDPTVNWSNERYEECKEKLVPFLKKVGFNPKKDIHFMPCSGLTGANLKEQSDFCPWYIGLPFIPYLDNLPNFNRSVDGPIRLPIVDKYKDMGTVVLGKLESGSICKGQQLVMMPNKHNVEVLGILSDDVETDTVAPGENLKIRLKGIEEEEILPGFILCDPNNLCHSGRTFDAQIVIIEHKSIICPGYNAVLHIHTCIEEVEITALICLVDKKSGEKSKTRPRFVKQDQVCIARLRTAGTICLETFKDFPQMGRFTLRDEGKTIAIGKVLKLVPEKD
Chain of [GSPT1]-[compound of formula (I)]-[CRBN/DDB1] complex (Q96SW2 whole entry): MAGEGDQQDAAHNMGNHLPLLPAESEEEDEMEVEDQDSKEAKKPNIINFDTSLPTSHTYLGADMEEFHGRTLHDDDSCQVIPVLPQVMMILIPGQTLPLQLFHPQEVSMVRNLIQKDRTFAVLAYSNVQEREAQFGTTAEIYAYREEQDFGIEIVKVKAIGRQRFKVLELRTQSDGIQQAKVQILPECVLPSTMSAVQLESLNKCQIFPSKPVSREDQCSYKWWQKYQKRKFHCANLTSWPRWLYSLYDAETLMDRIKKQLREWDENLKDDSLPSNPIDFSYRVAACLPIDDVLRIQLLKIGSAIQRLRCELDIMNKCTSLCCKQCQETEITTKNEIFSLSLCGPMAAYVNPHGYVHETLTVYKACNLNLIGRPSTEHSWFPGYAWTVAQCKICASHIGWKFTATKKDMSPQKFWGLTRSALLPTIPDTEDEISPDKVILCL
Chain of [GSPT1]-[compound of formula (I)]-[CRBN/DDB1] complex (Q16531 whole entry partner): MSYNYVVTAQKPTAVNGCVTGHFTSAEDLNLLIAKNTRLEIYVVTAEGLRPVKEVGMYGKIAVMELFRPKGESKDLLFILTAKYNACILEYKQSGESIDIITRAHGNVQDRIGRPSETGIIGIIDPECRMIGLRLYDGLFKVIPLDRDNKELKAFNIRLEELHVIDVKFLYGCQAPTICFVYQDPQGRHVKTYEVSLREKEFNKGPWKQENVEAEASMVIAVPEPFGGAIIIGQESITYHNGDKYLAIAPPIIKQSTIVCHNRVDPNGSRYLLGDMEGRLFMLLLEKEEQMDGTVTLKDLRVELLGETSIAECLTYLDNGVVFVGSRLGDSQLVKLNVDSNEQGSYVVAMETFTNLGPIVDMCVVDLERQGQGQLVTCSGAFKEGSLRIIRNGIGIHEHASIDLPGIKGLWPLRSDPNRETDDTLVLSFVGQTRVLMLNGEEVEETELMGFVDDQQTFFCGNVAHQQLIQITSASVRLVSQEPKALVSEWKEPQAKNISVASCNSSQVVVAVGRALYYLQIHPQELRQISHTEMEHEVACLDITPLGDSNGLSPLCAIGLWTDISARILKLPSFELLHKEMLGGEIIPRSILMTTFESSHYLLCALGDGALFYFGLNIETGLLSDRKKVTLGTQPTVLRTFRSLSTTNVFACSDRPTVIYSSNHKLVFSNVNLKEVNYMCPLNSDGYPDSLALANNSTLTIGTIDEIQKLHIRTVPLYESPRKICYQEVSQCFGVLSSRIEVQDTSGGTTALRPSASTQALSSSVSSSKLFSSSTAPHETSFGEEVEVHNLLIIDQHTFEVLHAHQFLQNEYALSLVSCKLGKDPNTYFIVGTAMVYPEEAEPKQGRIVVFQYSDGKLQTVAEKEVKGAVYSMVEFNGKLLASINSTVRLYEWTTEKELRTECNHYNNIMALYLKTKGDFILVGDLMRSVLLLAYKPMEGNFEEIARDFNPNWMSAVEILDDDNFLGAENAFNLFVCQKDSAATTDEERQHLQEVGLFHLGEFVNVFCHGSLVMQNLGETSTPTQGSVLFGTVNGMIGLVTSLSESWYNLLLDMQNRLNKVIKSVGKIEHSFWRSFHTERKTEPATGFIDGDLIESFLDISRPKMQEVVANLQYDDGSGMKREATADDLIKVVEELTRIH
T1 sequence (P15170 whole entry): as the sequence (P15170 whole entry) above
T1 sequence (Q96SW2 whole entry): as the sequence (Q96SW2 whole entry) above
T1 sequence (Q16531 whole entry partner): as the sequence (Q16531 whole entry partner) above

Compound	activation at 1 µM [1] [%]	Dmax [2] [%]	DC50 [2] [nM]	CTG assay Mean minimum [3]
Cc1ccc(NC(=S)NCc2ccc3cc(C4CCC(=O)NC4=O)c(C)nc3c2)cc1Cl (centres unmarked) [Compound 2, 1-(3-chloro-4-methylphenyl)-3-((3-(2,6-dioxopiperidin-3-yl)-2-methylquinolin-7-yl)methyl)thiourea]	10 to 50	–	–	–
Cc1ccc(NC(=O)OCc2ccc3cc(C4CCC(=O)NC4=O)c(C)nc3c2)cc1Cl (centres unmarked) [Compound 4, (3-(2,6-dioxopiperidin-3-yl)-2-methylquinolin-7-yl)methyl (3-chloro-4-methylphenyl)carbamate]	> 50	≥ 75	10 to 50	++++ (++++≥75% of viability of the HiBiT-GSPT1 HEK293 cells)
Cc1ccc(NC(=O)OCc2ccc3nc(C)c(C4CCC(=O)NC4=O)cc3c2)cc1Cl (centres unmarked) [Compound 5, (3-(2,6-dioxopiperidin-3-yl)-2-methylquinolin-6-yl)methyl (3-chloro-4-methylphenyl)carbamate]	> 50	–	–	–
Cc1nc2cc(COC(=O)Nc3cc(OC(F)(F)F)ccc3F)ccc2cc1C1CCC(=O)NC1=O (centres unmarked) [Compound 6, (3-(2,6-dioxopiperidin-3-yl)-2-methylquinolin-7-yl)methyl (2-fluoro-5-(trifluoromethoxy)phenyl)carbamate]	10 to 50	≥ 75	10 to 50	++++ (++++≥75% of viability of the HiBiT-GSPT1 HEK293 cells)
Cc1nc2cc(COC(=O)Nc3ccc(C(C)(C)C)cc3)ccc2cc1C1CCC(=O)NC1=O (centres unmarked) [Compound 8, (3-(2,6-dioxopiperidin-3-yl)-2-methylquinolin-7-yl)methyl (4-(tert-butyl)phenyl)carbamate]	> 50	≥ 75	< 10	++++ (++++≥75% of viability of the HiBiT-GSPT1 HEK293 cells)
Cc1nc2cc(COC(=O)Nc3cccc(C(C)(C)C)c3)ccc2cc1C1CCC(=O)NC1=O (centres unmarked) [Compound 9, (3-(2,6-dioxopiperidin-3-yl)-2-methylquinolin-7-yl)methyl (3-(tert-butyl)phenyl)carbamate]	10 to 50	≥ 75	10 to 50	++++ (++++≥75% of viability of the HiBiT-GSPT1 HEK293 cells)
Cc1nc2cc(COC(=O)Nc3ccc(C(C)(C)C)c(Cl)c3)ccc2cc1C1CCC(=O)NC1=O (centres unmarked) [Compound 10, (3-(2,6-dioxopiperidin-3-yl)-2-methylquinolin-7-yl)methyl (4-(tert-butyl)-3-chlorophenyl)carbamate]	10 to 50	≥ 75	< 10	++++ (++++≥75% of viability of the HiBiT-GSPT1 HEK293 cells)
COc1ccc(NC(=O)OCc2ccc3cc(C4CCC(=O)NC4=O)c(C)nc3c2)cc1Cl (centres unmarked) [Compound 11, (3-(2,6-dioxopiperidin-3-yl)-2-methylquinolin-7-yl)methyl (3-chloro-4-methoxyphenyl)carbamate]	> 50	≥ 75	< 10	++++ (++++≥75% of viability of the HiBiT-GSPT1 HEK293 cells)
Cc1nc2cc(COC(=O)Nc3ccc(Cl)c(Cl)c3)ccc2cc1C1CCC(=O)NC1=O (centres unmarked) [Compound 12, (3-(2,6-dioxopiperidin-3-yl)-2-methylquinolin-7-yl)methyl (3,4-dichlorophenyl)carbamate]	10 to 50	≥ 75	10 to 50	++++ (++++≥75% of viability of the HiBiT-GSPT1 HEK293 cells)
Cc1nc2cc(COC(=O)Nc3ccc4c(c3)OCO4)ccc2cc1C1CCC(=O)NC1=O (centres unmarked) [Compound 14, (3-(2,6-dioxopiperidin-3-yl)-2-methylquinolin-7-yl)methyl benzo[d][1,3]dioxol-5-ylcarbamate]	10 to 50	≥ 75	10 to 50	++++ (++++≥75% of viability of the HiBiT-GSPT1 HEK293 cells)
Cc1nc2cc(COC(=O)Nc3ccc4c(c3)OCCO4)ccc2cc1C1CCC(=O)NC1=O (centres unmarked) [Compound 15, (3-(2,6-dioxopiperidin-3-yl)-2-methylquinolin-7-yl)methyl (2,3-dihydrobenzo[b][1,4]dioxin-6-yl)carbamate]	10 to 50	≥ 75	< 10	++++ (++++≥75% of viability of the HiBiT-GSPT1 HEK293 cells)
Cc1nc2cc(COC(=O)Nc3cc(Cl)c(C)c(CN4CCOCC4)c3)ccc2cc1C1CCC(=O)NC1=O (centres unmarked) [Compound 17, (3-(2,6-dioxopiperidin-3-yl)-2-methylquinolin-7-yl)methyl (3-chloro-4-methyl-5-(morpholinomethyl)phenyl)carbamate]	10 to 50	≥ 75	< 10	++++ (++++≥75% of viability of the HiBiT-GSPT1 HEK293 cells)
Cc1nc2cc(COC(=O)Nc3ccc(C(F)(F)F)c(Cl)c3)ccc2cc1C1CCC(=O)NC1=O (centres unmarked) [Compound 18, (3-(2,6-dioxopiperidin-3-yl)-2-methylquinolin-7-yl)methyl (3-chloro-4-(trifluoromethyl)phenyl)carbamate]	10 to 50	≥ 75	10 to 50	++++ (++++≥75% of viability of the HiBiT-GSPT1 HEK293 cells)
Cc1nc2cc(COC(=O)Nc3cccc(OC(F)(F)F)c3)ccc2cc1C1CCC(=O)NC1=O (centres unmarked) [Compound 19, (3-(2,6-dioxopiperidin-3-yl)-2-methylquinolin-7-yl)methyl (3-(trifluoromethoxy)phenyl)carbamate]	10 to 50	≥ 75	< 10	++++ (++++≥75% of viability of the HiBiT-GSPT1 HEK293 cells)
